Columns and labels:
A549 cells = assay: CCK-8 proliferation assay, A549; format: cell-based, human; conditions: 48 h, CCK-8, mean ± SD
Protocol: (§1) All synthesized β-lactam-azide derivatives were evaluated for their antiproliferative activity against three cancer cell lines (MGC-803, MCF-7, A549) using CCK-8 proliferation assay. The well-known anticancer drug CA-4P was used as a control[36],[37].
(§2) MGC-803 cell line was obtained from the Chinese Academy of Sciences (Shanghai, China). MCF-7 and A549 were from the National Cell Center, China. MGC-803 cells were cultured in DMEM culture medium (DMEM, Biological Industries, Kibbutz Beit Haemek, Israel). A549 and MCF-7 cells were cultured in 1640 medium (1640, Biological Industries, Kibbutz Beit Haemek, Israel). All medium were supplemented with 10% fetal bovine serum, 100 U/ml penicillin (North China Pharmaceutical group Co.), and 100 µg/ml streptomycin (North China Pharmaceutical group Co.). All cells were cultured at 37 °C in a humidified incubator containing 5% CO2.
(§3) Synthesized analogues used in the study were dissolved in 100% cell culture grade DMSO and the final concentration of DMSO as <0.1% for testing on cancer cell lines. Cytotoxicity assays were performed on the human gastric carcinoma cell line MGC-803, the human mammary carcinoma cell line MCF-7, the human lung carcinoma cell line A549. Cells (3500–5000/well) were seeded into 96-well plates in 100 µL of culture medium. The cells were treated in triplicate with a gradient concentration of testing compounds and incubated at 37 °C, 5% CO2 for 48 h. For all cell lines, CCK-8 assay was performed to measure cytotoxic effects. The absorbance was measured using a microplate reader (BioTek Instrument, Inc. Vermont, USA) with a test wavelength of 450 nm. The absorbance levels were corrected against untreated control absorbance values. All experiments were performed in triplicate and SPSS17.0 was used for data analysis to obtain IC50 values.

MCF-7 cells = assay: CCK-8 proliferation assay, MCF-7; format: cell-based, human; conditions: 48 h, CCK-8, mean ± SD
Protocol: as §1, §2, §3

MGC-803 cells = assay: CCK-8 proliferation assay, MGC-803; format: cell-based, human; conditions: for IC50: 48 h, CCK-8, mean ± SD
Protocol: as §1, §2, §3

MGC-803 xenograft = MGC-803 xenograft model in nude mice; format: in vivo, BALB/c nude mice; conditions: 100 mg/kg, intragastric daily
Protocol: To evaluate the potential antitumor effects of 28 in vivo, a MGC-803 xenograft model were established in nude mice by subcutaneously injecting MGC-803 cells at its logarithmic phase into the right flank of mice[56]. Tumor bearing mice were then randomly assigned to five groups (control, 100 mg/kg CA-4P, 25, 50, 100 mg/kg 28) with 10 mice per group. Then, the mice were gavaged with saline (control), CA-4P and different concentrations of 28 in saline solution daily. […] At the end of the observation period, mean tumor volumes of control, CA-4P, 25, 50, and 100 mg/kg 28 groups were 1665.98 ± 568.36 mm^3, 642.61 ± 449.92 mm^3, 788.18 ± 435.92 mm^3, 1125.93 ± 668.25 mm^3 and 1273.88 ± 513.69 mm^3, respectively. […] The antitumor activity of 28 in vivo was similar to that of CA-4P.
Animals were treated according to protocols established by the ethics committee of Zhengzhou University and the in vivo experiments were carried out in accordance with the approved guidelines and approved by the ethics committee of Zhengzhou University. BALB/c nude mice (18 g, aged 4–5 weeks) were purchased from Human SJA Laboratory Animal Co. Ltd. (Hunan, China). Mice were subcutaneously implanted with MGC-803 cells (5 × 10^6 cells per mouse) on the right flank of nude mice. Once tumor volumes reached to approximately 100 mm^3, the mice were randomly divided into corresponding saline, CA-4P (100 mg/kg), 28 (100 mg/kg), 28 (50 mg/kg) and 28 (25 mg/kg) treatment groups (n = 10 mice for each group). The treatment groups received intragastric administration of 28 and CA-4P per day for a period of 21 days. Then, the mice were euthanized and tumors isolated and weighed. Their body weights were measured and tumor sizes determined by vernier caliper measurement every other day.

COc1cc(N2C(=O)[C@@](c3ccccc3)(S(=O)(=O)C(F)(F)F)[C@H]2c2cccc(N=[N+]=[N-])c2)cc(OC)c1OC [Compound 36, 4-(3-azidophenyl)-3-phenyl-3-((trifluoromethyl)sulfonyl)-1-(3,4,5-trimethoxyphenyl)azetidin-2-one]
IC50 (A549 cells; Homo sapiens, A549): > 20 µM
IC50 (MCF-7 cells; Homo sapiens, MCF7): > 20 µM
IC50 (MGC-803 cells; Homo sapiens, MGC-803): > 20 µM

CCN1CCN(C(=S)SCc2cn(-c3ccc([C@@H]4[C@@H](c5ccccc5)C(=O)N4c4cc(OC)c(OC)c(OC)c4)cc3)nn2)CC1 (relative stereo) [Compound 32, (1-(4-(trans-4-oxo-3-phenyl-1-(3,4,5-trimethoxyphenyl)azetidin-2-yl)phenyl)-1H-1,2,3-triazol-4-yl)methyl-4-ethylpiperazine-1-carbodithioate]
IC50 (A549 cells; Homo sapiens, A549): > 20 µM
IC50 (MCF-7 cells; Homo sapiens, MCF7): > 20 µM
IC50 (MGC-803 cells; Homo sapiens, MGC-803): > 20 µM

COc1ccc(/C=C\c2cc(OC)c(OC)c(OC)c2)cc1OP(=O)(O)O [CA-4P, reference compound]
IC50 (A549 cells): 0.033 ± 0.007 µM
inhibitory rate (tumor weight) (MGC-803 xenograft; 21 days): 63.27%
average tumor weight (MGC-803 xenograft; 21 days (control 1.23 ± 0.28)): 0.45 ± 0.22 g
mean tumor volume at end of observation period (MGC-803 xenograft; 21 days (control 1665.98 ± 568.36)): 642.61 ± 449.92 mm^3
IC50 (MCF-7 cells): 0.023 ± 0.002 µM
IC50 (MGC-803 cells): 0.015 ± 0.001 µM

COc1ccc(N2C(=O)[C@H](c3ccc(F)cc3)[C@H]2c2cccc(N=[N+]=[N-])c2)c(OC)c1 (relative stereo) [Compound 22, trans-4-(3-azidophenyl)-1-(2,4-dimethoxyphenyl)-3-(4-fluorophenyl)azetidin-2-one]
IC50 (A549 cells; Homo sapiens, A549): > 20 µM
IC50 (MCF-7 cells; Homo sapiens, MCF7): > 20 µM
IC50 (MGC-803 cells; Homo sapiens, MGC-803): > 20 µM

COc1cc(N2C(=O)[C@H](c3ccccc3)[C@H]2c2ccc(N=[N+]=[N-])cc2)cc(OC)c1OC (relative stereo) [Compound 18, trans-4-(4-azidophenyl)-3-phenyl-1-(3,4,5-trimethoxyphenyl)azetidin-2-one]
IC50 (A549 cells; Homo sapiens, A549): 1.74 ± 0.145 µM
melting point: 66 to 68 °C
IC50 (MCF-7 cells; Homo sapiens, MCF7): 0.338 ± 0.004 µM
IC50 (MGC-803 cells; Homo sapiens, MGC-803): 0.171 ± 0.051 µM

COc1ccc([C@H]2C(=O)N(c3ccc(OC)cc3OC)[C@@H]2c2cccc(N=[N+]=[N-])c2)cc1 (relative stereo) [Compound 21, trans-4-(3-azidophenyl)-1-(2,4-dimethoxyphenyl)-3-(4-methoxyphenyl)azetidin-2-one]
IC50 (A549 cells; Homo sapiens, A549): > 20 µM
IC50 (MCF-7 cells; Homo sapiens, MCF7): > 20 µM
IC50 (MGC-803 cells; Homo sapiens, MGC-803): > 20 µM

trans-4-phenyl-3-(thiophen-2-yl)-1-(3,4,5-trimethoxyphenyl)azetidin-2-one [Compound 27]
IC50 (A549 cells): > 20 µM
IC50 (MCF-7 cells): > 20 µM
IC50 (MGC-803 cells): > 20 µM

COc1cc(N2C(=O)[C@@](c3ccccc3)(S(=O)(=O)C(F)(F)F)[C@H]2c2ccc(N=[N+]=[N-])cc2)cc(OC)c1OC [Compound 35, 4-(4-azidophenyl)-3-phenyl-3-((trifluoromethyl)sulfonyl)-1-(3,4,5-trimethoxyphenyl)azetidin-2-one]
IC50 (A549 cells; Homo sapiens, A549): > 20 µM
IC50 (MCF-7 cells; Homo sapiens, MCF7): > 20 µM
IC50 (MGC-803 cells; Homo sapiens, MGC-803): > 20 µM

COc1cccc([C@H]2C(=O)N(c3cc(OC)c(OC)c(OC)c3)[C@@H]2c2ccc(N=[N+]=[N-])cc2)c1 (relative stereo) [Compound 19, trans-4-(4-azidophenyl)-3-(3-methoxyphenyl)-1-(3,4,5-trimethoxyphenyl)azetidin-2-one]
IC50 (A549 cells; Homo sapiens, A549): 18.1 ± 2.31 µM
IC50 (MCF-7 cells; Homo sapiens, MCF7): 2.88 ± 0.489 µM
IC50 (MGC-803 cells; Homo sapiens, MGC-803): 1.4 ± 0.133 µM
activity loss against the growth of MGC-803 cells (MGC-803 cells; hydrogen atom (18) replaced with methoxy group (19)): over 8 fold

COc1ccc([C@H]2C(=O)N(c3ccc(OC)c(OC)c3)[C@@H]2c2ccc(N=[N+]=[N-])cc2)cc1 [Compound 13, trans-4-(4-azidophenyl)-1-(3,4-dimethoxyphenyl)-3-(4-methoxyphenyl)azetidin-2-one]
IC50 (A549 cells; Homo sapiens, A549): > 20 µM
IC50 (MCF-7 cells; Homo sapiens, MCF7): > 20 µM
IC50 (MGC-803 cells; Homo sapiens, MGC-803): > 20 µM

COc1cc(N2C(=O)[C@@H](c3ccccc3)[C@@H]2c2cccc(N=[N+]=[N-])c2)cc(OC)c1OC (relative stereo) [Compound 25, trans-4-(3-azidophenyl)-3-phenyl-1-(3,4,5-trimethoxyphenyl)azetidin-2-one]
IC50 (A549 cells; Homo sapiens, A549): 2.13 ± 0.39 µM
melting point: 128 to 129 °C
IC50 (MCF-7 cells; Homo sapiens, MCF7): 0.805 ± 0.176 µM
IC50 (MGC-803 cells; Homo sapiens, MGC-803): 0.392 ± 0.028 µM

COc1ccc(N2C(=O)[C@H](c3ccccc3)[C@H]2c2ccc(N=[N+]=[N-])cc2)cc1OC (relative stereo) [Compound 12, trans-4-(4-azidophenyl)-1-(3,4-dimethoxyphenyl)-3-phenylazetidin-2-one]
IC50 (A549 cells; Homo sapiens, A549): > 20 µM
IC50 (MCF-7 cells; Homo sapiens, MCF7): > 20 µM
IC50 (MGC-803 cells; Homo sapiens, MGC-803): > 20 µM

COc1ccc([C@@H]2C(=O)N(c3cc(OC)c(OC)c(OC)c3)[C@H]2c2ccc(-n3cc(-c4ccccc4)nn3)cc2)cc1 (relative stereo) [Compound 30, trans-3-(4-methoxyphenyl)-4-(4-(4-phenyl-1H-1,2,3-triazol-1-yl)phenyl)-1-(3,4,5-trimethoxyphenyl)azetidin-2-one]
IC50 (A549 cells; Homo sapiens, A549): > 20 µM
melting point: 90 to 91 °C
IC50 (MCF-7 cells; Homo sapiens, MCF7): > 20 µM
IC50 (MGC-803 cells; Homo sapiens, MGC-803): > 20 µM

COc1cc(N2C(=O)[C@H](c3ccc(F)cc3)[C@H]2c2cccc(N=[N+]=[N-])c2)cc(OC)c1OC (relative stereo) [Compound 24, trans-4-(3-azidophenyl)-3-(4-fluorophenyl)-1-(3,4,5-trimethoxyphenyl)azetidin-2-one]
IC50 (A549 cells; Homo sapiens, A549): 5.76 ± 0.887 µM
IC50 (MCF-7 cells; Homo sapiens, MCF7): 4 ± 0.922 µM
IC50 (MGC-803 cells; Homo sapiens, MGC-803): 0.84 ± 0.63 µM

COc1ccc([C@H]2C(=O)N(c3cc(OC)c(OC)c(OC)c3)[C@@H]2c2ccc(-n3cc(CSC(=S)N4CCCC4)nn3)cc2)cc1 (relative stereo) [Compound 31, (1-(4-(trans-3-(4-methoxyphenyl)-4-oxo-1-(3,4,5-trimethoxyphenyl)azetidin-2-yl)phenyl)-1H-1,2,3-triazol-4-yl)methylpyrrolidine-1-carbodithioate]
IC50 (A549 cells; Homo sapiens, A549): > 20 µM
IC50 (MCF-7 cells; Homo sapiens, MCF7): > 20 µM
IC50 (MGC-803 cells; Homo sapiens, MGC-803): > 20 µM

COc1ccc([C@H]2C(=O)N(c3cc(OC)c(OC)c(OC)c3)[C@@H]2c2ccc(N=[N+]=[N-])cc2)cc1 (relative stereo) [Compound 17, trans-4-(4-azidophenyl)-3-(4-methoxyphenyl)-1-(3,4,5-trimethoxyphenyl)azetidin-2-one]
IC50 (A549 cells; Homo sapiens, A549): 3.22 ± 0.349 µM
IC50 (MCF-7 cells; Homo sapiens, MCF7): 1.07 ± 0.024 µM
IC50 (MGC-803 cells; Homo sapiens, MGC-803): 0.59 ± 0.014 µM

COc1ccc(N2C(=O)[C@H](c3ccc(Cl)cc3)[C@H]2c2ccc(N=[N+]=[N-])cc2)cc1 (relative stereo) [Compound 14, trans-4-(4-azidophenyl)-3-(4-chlorophenyl)-1-(4-methoxyphenyl)azetidin-2-one]
IC50 (A549 cells; Homo sapiens, A549): > 20 µM
melting point: 147 to 149 °C
IC50 (MCF-7 cells; Homo sapiens, MCF7): > 20 µM
IC50 (MGC-803 cells; Homo sapiens, MGC-803): > 20 µM

COc1cccc([C@H]2C(=O)N(c3cc(OC)c(OC)c(OC)c3)[C@@H]2c2cccc(N=[N+]=[N-])c2)c1 (relative stereo) [Compound 23, trans-4-(3-azidophenyl)-3-(3-methoxyphenyl)-1-(3,4,5-trimethoxyphenyl)azetidin-2-one]
IC50 (A549 cells; Homo sapiens, A549): 18.1 ± 1.71 µM
IC50 (MCF-7 cells; Homo sapiens, MCF7): 2.88 ± 0.494 µM
IC50 (MGC-803 cells; Homo sapiens, MGC-803): 1.4 ± 0.127 µM

COc1cccc([C@H]2C(=O)N(c3ccc(OC)c(OC)c3)[C@@H]2c2ccc(N=[N+]=[N-])cc2)c1 (relative stereo) [Compound 16, trans-4-(4-azidophenyl)-1-(3,4-dimethoxyphenyl)-3-(3-methoxyphenyl)azetidin-2-one]
IC50 (A549 cells; Homo sapiens, A549): > 20 µM
IC50 (MCF-7 cells; Homo sapiens, MCF7): > 20 µM
IC50 (MGC-803 cells; Homo sapiens, MGC-803): > 20 µM
